Experimental findings from PubChem BioAssay (NCI) are described below.

Among the test systems are OVCAR-3 ovarian; DU-145 prostate; MOLT-4 leukemia; 786-0 renal; SR leukemia; A549 NSCLC; HOP-62 NSCLC; SF-268 CNS; SNB-19 CNS; SK-MEL-2 melanoma.
What all share (experiment): growth of human tumour cells (NCI), 48 h

Molecules are shown by their SMILES.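 Results reflect a 48-hour exposure of cells in 96-well plates to compound at five concentrations. GI50: concentration for 50% inhibition of growth. TGI: total growth inhibition.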 Where only a bound is given, the exact number is not on record here.

Regarding `COc1ccc2nc(-c3ccccc3)cc(Nc3ccc(/C(C)=N/O)cc3)c2c1`, the GI50 in the test on OVCAR-3 ovarian was 2.87 µM; in the test with DU-145 prostate it was 2.8 µM; in the test with MOLT-4 leukemia it was 3.73 µM; with 786-0 renal, 2.09 µM; in the test with SR leukemia, 3.82 µM; with A549 NSCLC, 3.42 µM. Besides, the GI50 was 2.14 µM with HOP-62 NSCLC, 3.39 µM in the test on SF-268 CNS, 5.38 µM with SNB-19 CNS and 88.4 µM in the test with SK-MEL-2 melanoma. For the same molecule, the TGI in the test on OVCAR-3 ovarian is over 100 µM; in the test on DU-145 prostate, over 23 µM; in the test with MOLT-4 leukemia, over 100 µM; in the test with 786-0 renal, 3.7 µM; in the test with SR leukemia, over 100 µM; with A549 NSCLC, 32 µM. Also, the TGI is 5.06 µM in the test on HOP-62 NSCLC, over 23 µM in the test with SF-268 CNS, over 100 µM in the test with SNB-19 CNS and over 100 µM in the test on SK-MEL-2 melanoma.
Consider `CC(=O)OCCC/C(=C\c1ccc2ccccc2c1)[N+](=O)[O-]`, for which the GI50 is 1.52 µM in the test on OVCAR-3 ovarian; 1.65 µM in the test with DU-145 prostate; 4.87 µM in the test with MOLT-4 leukemia; 1.81 µM with 786-0 renal; 1.67 µM in the test with SR leukemia; 3.41 µM in the test on A549 NSCLC. The GI50 with HOP-62 NSCLC was 2 µM; with SF-268 CNS it was 1.67 µM; with SNB-19 CNS it was 1.77 µM; with SK-MEL-2 melanoma, 1.71 µM. The TGI with OVCAR-3 ovarian is 3.08 µM; in the test on DU-145 prostate it was 3.4 µM; in the test with MOLT-4 leukemia, over 100 µM; with 786-0 renal, 3.35 µM; in the test with SR leukemia, over 100 µM; in the test with A549 NSCLC, 31.2 µM. The TGI in the test with HOP-62 NSCLC was determined as 4.09 µM; with SF-268 CNS, 3.43 µM; in the test on SNB-19 CNS, 3.28 µM; with SK-MEL-2 melanoma it was 3.62 µM.
As to `O=C1C=C(N2CC2)c2ccccc2C1=O`, the GI50 with OVCAR-3 ovarian was 1.77 µM; with DU-145 prostate, 1.34 µM; in the test on MOLT-4 leukemia it was 1.99 µM; with 786-0 renal, 1.83 µM; with SR leukemia it was 1.21 µM; in the test on A549 NSCLC, 2.07 µM. The GI50 was 1.74 µM with HOP-62 NSCLC, 1.79 µM in the test with SF-268 CNS, 1.83 µM with SNB-19 CNS and 2.28 µM with SK-MEL-2 melanoma. Moreover, the TGI in the test with OVCAR-3 ovarian was 3.27 µM; in the test with DU-145 prostate, 2.66 µM; in the test with MOLT-4 leukemia, 5.77 µM; in the test on 786-0 renal it was 3.28 µM; in the test on SR leukemia, 4.78 µM; in the test with A549 NSCLC, 4.7 µM. The TGI in the test with HOP-62 NSCLC was determined as 3.13 µM; with SF-268 CNS it was 3.71 µM; in the test with SNB-19 CNS, 3.35 µM; in the test on SK-MEL-2 melanoma, 4.34 µM.
Take `Cc1cc(C)cc(Nc2nccc(-c3c(-c4ccc(F)cc4)ncn3C3CCNCC3)n2)c1`: the GI50 with OVCAR-3 ovarian is 1.39 µM; in the test on DU-145 prostate, 1.46 µM; with MOLT-4 leukemia, 2.03 µM; with 786-0 renal it was 1.31 µM; with SR leukemia, 1.01 µM; with A549 NSCLC, 1.09 µM. In addition, the GI50 is 2.04 µM in the test on HOP-62 NSCLC, 1.48 µM in the test with SF-268 CNS, 1.68 µM in the test with SNB-19 CNS and 2.04 µM in the test on SK-MEL-2 melanoma. In addition, the TGI in the test on OVCAR-3 ovarian was 2.87 µM; in the test with DU-145 prostate, 3.14 µM; in the test on MOLT-4 leukemia, 5.32 µM; in the test with 786-0 renal, 2.79 µM; in the test on SR leukemia, 3.61 µM; in the test with A549 NSCLC it was 3.16 µM. The TGI came to 3.95 µM in the test with HOP-62 NSCLC, 3.96 µM in the test with SF-268 CNS, 3.71 µM in the test on SNB-19 CNS and 4.09 µM with SK-MEL-2 melanoma.
As to `COc1cc(C(=O)/C=C/c2c(-c3ccc(F)cc3)nc3sccn23)cc(OC)c1OC`, the GI50 is 2.27 µM with OVCAR-3 ovarian; 2.52 µM with DU-145 prostate; 2.16 µM with MOLT-4 leukemia; 2.54 µM in the test with 786-0 renal; 1.41 µM with SR leukemia; 2.54 µM in the test with A549 NSCLC. Also, the GI50 in the test on HOP-62 NSCLC is 1.96 µM; in the test on SF-268 CNS it was 2.37 µM; in the test on SNB-19 CNS, 3.37 µM; in the test with SK-MEL-2 melanoma it was 5.59 µM. The TGI in the test with OVCAR-3 ovarian was 6.81 µM; with DU-145 prostate, 6.64 µM; with MOLT-4 leukemia it was 6.35 µM; in the test on 786-0 renal it was 6.49 µM; in the test on SR leukemia, 5.09 µM; with A549 NSCLC, over 21.1 µM. Besides, the TGI is 5.73 µM in the test on HOP-62 NSCLC, 7.36 µM with SF-268 CNS, 27.8 µM with SNB-19 CNS and over 27.9 µM in the test on SK-MEL-2 melanoma.
Consider `CC(=O)OC1CCC2(C)C(CCC3C2CCC2(C)C(C4=CC(=O)OC4)CCC32)C1` (stereo not given), for which the GI50 in the test on OVCAR-3 ovarian was 20.6 µM; in the test on DU-145 prostate it was 14.7 µM; in the test on MOLT-4 leukemia, 2.6 µM; with 786-0 renal, 15.6 µM; in the test with SR leukemia it was 0.468 µM; with A549 NSCLC, 3.05 µM. Also, the GI50 with HOP-62 NSCLC was 14.5 µM; with SF-268 CNS, 2.38 µM; with SNB-19 CNS, 8.49 µM; in the test with SK-MEL-2 melanoma it was 7.72 µM. The TGI with OVCAR-3 ovarian is 86 µM; in the test on DU-145 prostate, 40.3 µM; in the test on MOLT-4 leukemia it was 6.3 µM; in the test with 786-0 renal, 39.7 µM; in the test on SR leukemia, 10.9 µM; with A549 NSCLC, 19.7 µM. The TGI was 38.3 µM in the test on HOP-62 NSCLC, 10.1 µM in the test on SF-268 CNS, 38.4 µM with SNB-19 CNS and 34.4 µM in the test on SK-MEL-2 melanoma.
